The values below come from ChEMBL document CHEMBL4354831, “Novel Cell-Penetrating Peptide Conjugated Proteasome Inhibitors: Anticancer and Antifungal Investigations” (J Med Chem, 2020).

Each structure is given as a SMILES string. Activity calls are given as the source filed them. Peptide text beside a SMILES is read from it.

In series [1] the test system is BE(2)-C. As to the kind of experiment: Induction of membrane blebbing in human BE(2)-C cells at 2xIC50 after 12 hrs by SEM analysis. Format: cell-based. The conditions noted are these: Cell membrane.
In series [2] the test system is BE(2)-C. As to the kind of experiment: Induction of ROS generation in human BE(2)-C cells at 2xIC50 measured up to 24 hrs in presence of ROS quencher, ascorbic acid by DCFH-DA staining based fluorescence analysis. Format: functional, cell-based.
The test system of series [3] is BE(2)-C. As to the kind of experiment: Induction of apoptosis in human BE(2)-C cells at 2xIC50 after 24 hrs by Annexin-V alexa fluor 488/PI staining based fluorescence microscopic analysis. Format: functional, cell-based.
Series [4] is described as follows: Hemolytic activity in mouse RBC at 500 uM after 1 hr relative to control. The class given is ADME, cell-based, Erythrocyte. The conditions noted are these: red blood cells (erythrocytes), read-out: Activity.
Series [5] has as its system BE(2)-C. As to the kind of experiment: Antiproliferative activity against human BE(2)-C cells assessed as cell viability at 4.7 uM after 48 hrs by MTT assay relative to control. Format: functional. The conditions noted are these: read-out: Activity. In general terms: Tetrazolium assays rely on reduction of a dye to a coloured formazan, in cell work by metabolically active cells.

The test system of series [6] is Candida albicans. As to the kind of experiment: Potentiation of amphotericin B-induced antifungal activity against Candida albicans SC5314 assessed as amphotericin MIC after 24 to 48 hrs by checker board assay. The class given is functional.
Series [7] has as its system BE(2)-C. As to the kind of experiment: Antiproliferative activity against human BE(2)-C cells assessed as cell viability at 4.7 uM in presence of 5.3 uM cisplatin after 48 hrs by MTT assay relative to control. Format: functional.
The subject of series [8] is Candida albicans. As to the kind of experiment: Induction of pore formation in Candida albicans SC5314 membrane at 2xMBEC by SEM analysis. The class given is organism-based. The conditions noted are these: Cell membrane.
Series [9] has as its system BE(2)-C. As to the kind of experiment: Induction of membrane disruption in human BE(2)-C cells assessed as membrane lysis at 2xIC50 after 24 hrs by SYTO9/PI-staining based inverted fluorescence microscopic analysis. The conditions noted are these: Cell membrane.
Series [10] concerns HeLa. As to the kind of experiment: Antiproliferative activity against human HeLa cells assessed as cell viability at 4.7 uM in presence of 6.3 uM cisplatin after 48 hrs by MTT assay relative to control. Format: functional.
Series [11] relates to HeLa. As to the kind of experiment: Induction of ROS generation in human HeLa cells at 2xIC50 by DCFH-DA staining based fluorescence analysis. Format: functional, cell-based. The conditions noted are these: TDE = time-dependent effect.
Series [12] has as its system BE(2)-C. As to the kind of experiment: Induction of membrane disruption in human BE(2)-C cells assessed as increase in cell debris with damaged membrane at 2xIC50 after 12 hrs by SEM analysis. The class given is cell-based.
Series [13] deals with BE(2)-C. As to the kind of experiment: Antiproliferative activity against human BE(2)-C cells assessed as reduction in cell viability after 48 hrs by MTT assay. The class given is functional, cell-based.
Series [14] concerns HeLa. As to the kind of experiment: Induction of ROS generation in human HeLa cells at 2xIC50 measured up to 24 hrs in presence of ROS quencher, ascorbic acid by DCFH-DA staining based fluorescence analysis. The class given is functional, cell-based.
Series [15] relates to Candida albicans. As to the kind of experiment: Ratio of MIC for antifungal activity against Candida albicans SC5314 to MIC for antifungal activity against Candida albicans SC5314 in presence of amphotericin B after 24 to 48 hrs by checker board assay. Format: functional.
Series [16] deals with BE(2)-C. As to the kind of experiment: Induction of ROS generation in human BE(2)-C cells at 2xIC50 by DCFH-DA staining based fluorescence analysis. The conditions noted are these: TDE = time-dependent effect. Format: functional, cell-based.
The target of series [17] is 20S proteasome (Homo sapiens) (UniProt P49721+P20618+P28074+P28062+P28065+P28072+P25786+P25787+P25788+P25789+P28066+P60900+O14818+Q8TAA3+P40306+A5LHX3+P49720+P28070+Q99436). As to the kind of experiment: Inhibition of 20S proteasome in human HeLa cells at 2xIC50 using LLVY-R110 peptide as substrate measured up to 36 hrs by fluorescence based assay. Format: cell-based.

For series [18], the system named is Candida albicans. As to the kind of experiment: Antibiofilm activity against 24 hrs preformed biofilm of Candida albicans SC5314 assessed as biofilm cell eradication at 62.5 uM after 24 hrs by XTT assay relative to control. The class given is functional.
Series [19] deals with HeLa. As to the kind of experiment: Induction of apoptosis in human HeLa cells assessed as DNA damage at 2xIC50 after 24 hrs by SYTO9/PI-staining based inverted fluorescence microscopic analysis. Format: functional, cell-based.
The test system of series [20] is HeLa. As to the kind of experiment: Induction of membrane disruption in human HeLa cells assessed as membrane blebbing at 2xIC50 after 24 hrs by SYTO9/PI-staining based inverted fluorescence microscopic analysis. The conditions noted are these: Cell membrane.
For series [21], the system named is HeLa. As to the kind of experiment: Induction of ROS generation in human HeLa cells at 0.4 to 200 uM after 24 hrs in presence of ROS quencher, ascorbic acid by DCFH-DA staining based fluorescence analysis. The class given is functional, cell-based.
Series [22] deals with Candida albicans. As to the kind of experiment: Induction of hyphal disruption in Candida albicans SC5314 assessed as hyphal debris at 2xMBEC by SEM analysis. The class given is organism-based. The conditions noted are these: Hyphae.
For series [23], the system named is HeLa. As to the kind of experiment: Antiproliferative activity against human HeLa cells assessed as cell viability at 4.7 uM after 48 hrs by MTT assay relative to control. Format: functional. The conditions noted are these: read-out: Activity.
Series [24] relates to Candida albicans. As to the kind of experiment: Antibiofilm activity against 24 hrs preformed biofilm of Candida albicans SC5314 assessed as biofilm cell eradication at 125 uM after 24 hrs by XTT assay relative to control. Format: functional.
The subject of series [25] is BE(2)-C. As to the kind of experiment: Antiproliferative activity against human BE(2)-C cells assessed as cell viability at 10.3 uM after 48 hrs by MTT assay relative to control. The class given is functional. The conditions noted are these: read-out: Activity.
For series [26], the system named is HeLa. As to the kind of experiment: Antiproliferative activity against human HeLa cells assessed as cell viability at 10.2 uM after 48 hrs by MTT assay relative to control. The class given is functional. The conditions noted are these: read-out: Activity.
In series [27] the test system is HeLa. As to the kind of experiment: Antiproliferative activity against human HeLa cells assessed as cell viability at 10.2 uM in presence of 6.3 uM cisplatin after 48 hrs by MTT assay relative to control. The class given is functional.
The subject of series [28] is BE(2)-C. As to the kind of experiment: Antiproliferative activity against human BE(2)-C cells assessed as cell viability at 10.3 uM in presence of 5.3 uM cisplatin after 48 hrs by MTT assay relative to control. The class given is functional.

Consider `CC(=O)N[C@@H](Cc1ccc(O)cc1)C(=O)NCC(=O)N[C@@H](CCCNC(=N)N)C(=O)N[C@@H](CCCCN)C(=O)N[C@@H](CCCCN)C(=O)N[C@@H](CCCNC(=N)N)C(=O)N[C@@H](CCCNC(=N)N)C(=O)N[C@@H](CCC(N)=O)C(=O)N[C@@H](CCCNC(=N)N)C(=O)N[C@@H](CCCNC(=N)N)C(=O)N[C@@H](CCCNC(=N)N)C(=O)NCC(=O)NCC(=O)NCC(=O)N[C@@H](Cc1ccc(O)cc1)C(=O)N[C@@H](CC(C)C)C(=O)N[C@@H](Cc1ccccc1)C(=O)N[C@H](C=O)CC(C)C` (Ac-YGRKKRRQRRRGGGYLFL-aldehyde), for which the result in the series with BE(2)-C [1], in the series with BE(2)-C [3], in the series with Candida albicans [8], with BE(2)-C [9], in the series with BE(2)-C [12] and in the series on HeLa [19] was Active. In addition, the outcome in the series on HeLa [20] and with Candida albicans [22] was Active. For the same compound, the outcome with BE(2)-C [2], in the series with HeLa [14] and with HeLa [21] was inactive. Moreover, the hemolysis at 1 h, 500 µM in [4] stood at 12%. Also, the viability at 4.7 µM with BE(2)-C [5] and in the series with HeLa [23] was above 50% in each case. Also, the MIC in the series with Candida albicans [6] turned out to be 0.25 µM. For the same compound, the Activity was 11% in the series on BE(2)-C [7]; 18% in the series on HeLa [10]; “Tde” in the series with HeLa [11]; “Tde” with BE(2)-C [16]; above 50% with Candida albicans [18]. For the same compound, the half-maximal inhibitory concentration (IC50) in the series with BE(2)-C [13] came out at 4.7 µM. Besides, in the series on Candida albicans [15], the Ratio turned out to be 5. Further, the inhibition result in series [17] was “Active”.
As to `CC(=O)N[C@@H](Cc1ccc(O)cc1)C(=O)NCC(=O)N[C@@H](CCCNC(=N)N)C(=O)N[C@@H](CCCCN)C(=O)N[C@@H](CCCCN)C(=O)N[C@@H](CCCNC(=N)N)C(=O)N[C@@H](CCCNC(=N)N)C(=O)N[C@@H](CCC(N)=O)C(=O)N[C@@H](CCCNC(=N)N)C(=O)N[C@@H](CCCNC(=N)N)C(=O)N[C@@H](CCCNC(=N)N)C(=O)NCC(=O)NCC(=O)NCC(=O)N[C@@H](CC(C)C)C(=O)N[C@@H](CC(C)C)C(=O)N[C@H](C=O)CC(C)C` (Ac-YGRKKRRQRRRGGGLLL-aldehyde), the result in the series on BE(2)-C [1], in the series with BE(2)-C [3], with Candida albicans [8], in the series on BE(2)-C [9], in the series with BE(2)-C [12] and with HeLa [19] was Active. In addition, the result in the series on HeLa [20] and in the series with Candida albicans [22] was Active. Further, the outcome in the series on BE(2)-C [2], in the series with HeLa [14] and with HeLa [21] was inactive. Further, the hemolysis at 1 h, 500 µM in series [4] turned out to be 1%. The Activity in the series on Candida albicans [24] was above 50%; in the series on HeLa [11] it was “Tde”; in the series on BE(2)-C [16] it was “Tde”; in the series with HeLa [27], 14%; in the series with BE(2)-C [28] it was 13%. Further, the MIC with Candida albicans [6] is 0.25 µM. Moreover, the viability at 10.3 µM in the series with BE(2)-C [25] is above 50%. In the series on BE(2)-C [13], the IC50 was 10.3 µM. In addition, the Ratio in the series with Candida albicans [15] is 5. Moreover, the inhibition result in series [17] was “Active”. Besides, the viability at 10.2 µM in the series with HeLa [26] came to 52%.

In general, MIC refers to the smallest concentration in the dilution series that meets the test's criterion for growth inhibition. A word on the IC50: it is the concentration needed to halve the response being measured.
